Measurements as given in patent publication US10167257B2, “Indole derivatives for use in medicine” (IOmet Pharma Ltd., priority 2014, dated 2019).

Key:
TDO (A172 cells) = molecular target: T1, TDO (A172 cells) (Homo sapiens, UniProt P48775); assay: TDO cell-based assay (A172), kynurenine production; settings: A172 human glioblastoma cells, 500 μM L-Trp, 48 h, kynurenine by absorbance at 490 nm
T1 construct: This assay utilised cancer cells which expressed either TDO or IDO; host or cells: A172 human glioblastoma cells
T1 sequence (P48775 whole entry): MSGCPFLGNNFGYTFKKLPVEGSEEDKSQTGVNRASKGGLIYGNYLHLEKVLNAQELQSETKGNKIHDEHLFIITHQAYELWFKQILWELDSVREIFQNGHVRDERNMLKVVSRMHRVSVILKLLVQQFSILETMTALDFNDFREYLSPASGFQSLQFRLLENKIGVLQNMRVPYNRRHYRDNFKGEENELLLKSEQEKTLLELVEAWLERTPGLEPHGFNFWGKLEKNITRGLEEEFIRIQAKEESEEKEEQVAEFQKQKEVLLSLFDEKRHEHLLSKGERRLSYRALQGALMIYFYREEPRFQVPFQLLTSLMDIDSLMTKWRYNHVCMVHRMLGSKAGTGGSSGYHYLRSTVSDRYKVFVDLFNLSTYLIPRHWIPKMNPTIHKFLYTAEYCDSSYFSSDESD
Procedure, shortened: (§1)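 SKOV-3 cells (IDO, induced with 500 ng/ml IFNγ) or A172 glioblastoma cells (TDO) were incubated with compound and 500 μM L-Trp for 48 h at 37 °C in phenol-red-free RPMI with dialysed serum. Supernatant kynurenine was measured with 1% Ehrlich's reagent as absorbance at 490 nm.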

IDO (SKOV-3 cells) = molecular target: T2, IDO (SKOV-3 cells) (Homo sapiens, UniProt P14902); assay: IDO cell-based assay (SKOV-3, IFNγ-induced), kynurenine production; settings: SKOV-3 ovary adenocarcinoma cells, IFNγ 500 ng/ml, 500 μM L-Trp, 48 h, kynurenine by absorbance at 490 nm
T2 construct: This assay utilised cancer cells which expressed either TDO or IDO; host or cells: SKOV-3 ovary adenocarcinoma cells, IFNγ-induced
T2 sequence (P14902 whole entry): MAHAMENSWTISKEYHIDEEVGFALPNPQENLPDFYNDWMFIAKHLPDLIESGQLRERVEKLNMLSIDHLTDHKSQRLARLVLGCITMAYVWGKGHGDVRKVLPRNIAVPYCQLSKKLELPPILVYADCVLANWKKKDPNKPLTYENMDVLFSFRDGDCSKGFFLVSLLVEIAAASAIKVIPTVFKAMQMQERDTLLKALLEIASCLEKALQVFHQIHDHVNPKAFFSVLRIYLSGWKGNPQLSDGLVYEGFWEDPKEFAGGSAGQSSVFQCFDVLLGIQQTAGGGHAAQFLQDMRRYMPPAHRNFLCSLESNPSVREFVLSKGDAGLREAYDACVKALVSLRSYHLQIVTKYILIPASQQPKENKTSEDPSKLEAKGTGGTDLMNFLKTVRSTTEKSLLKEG
Procedure, shortened: as §1

| TDO cellular assay (A172) pIC50 (TDO (A172 cells)) | IDO cellular assay (SKOV3) pIC50 (IDO (SKOV-3 cells)) | IC50 (TDO (A172 cells); read-out: TDO cellular assay (A172) pIC50 (converted)) | IC50 (IDO (SKOV-3 cells); read-out: IDO cellular assay (SKOV3) pIC50 (converted)) | SMILES |
| --- | --- | --- | --- | --- |
| − (− = pIC50 <4.50) | + (+ = pIC50 4.50-<5.00) | – | – | CC(NC(=O)c1cc2ccccc2[nH]1)c1ccccn1 (stereo not shown) [Compound 37] |
| − (− = pIC50 <4.50) | +++ (+++ = pIC50 ≥5.50) | – | – | CC(NC(=O)c1cc2cc(Cl)ccc2[nH]1)c1ccn(-c2ccccc2)n1 (stereo not shown) [Compound 173] |
| − (− = pIC50 <4.50) | + (+ = pIC50 4.50-<5.00) | – | – | C[C@@H](NC(=O)c1cc2cc(Cl)cnc2[nH]1)c1ccccc1 [Compound 163] |
| − (− = pIC50 <4.50) | +++ (+++ = pIC50 ≥5.50) | – | – | C[C@@H](NC(=O)c1cc2cc(Br)ccc2[nH]1)c1ccccc1 [Compound 252] |
| − (− = pIC50 <4.50) | +++ (+++ = pIC50 ≥5.50) | – | – | O=C(Nc1cccc2ccccc12)c1cc2cc(F)ccc2[nH]1 [Compound 51] |
| − (− = pIC50 <4.50) | + (+ = pIC50 4.50-<5.00) | – | – | CC(NC(=O)c1cc2ccncc2[nH]1)c1ccccc1 (stereo not shown) [Compound 81] |
| − (− = pIC50 <4.50) | ++ (++ = pIC50 5.00-<5.50) | – | – | COc1ccc2cc(C(=O)NC3(c4ccccc4)COC3)[nH]c2c1 [Compound 169] |
| – | – | 3.16 to 10 µM | ≤ 3.16 µM | C[C@@H](NC(=O)c1cc2cc(Cl)ccc2[nH]1)c1ccccc1 [Compound 48] |
| − (− = pIC50 <4.50) | + (+ = pIC50 4.50-<5.00) | – | – | O=C(NC1(c2ccccc2)CC1)c1cc2cc(O)ccc2[nH]1 [Compound 187] |
| − (− = pIC50 <4.50) | +++ (+++ = pIC50 ≥5.50) | – | – | C[C@@H](NC(=O)c1cc2cc(OC(F)(F)F)ccc2[nH]1)c1ccccc1 [Compound 247] |
| − (− = pIC50 <4.50) | +++ (+++ = pIC50 ≥5.50) | – | – | O=C(NC1(c2nc(-c3ccccc3)no2)CC1)c1cc2cc(Cl)ccc2[nH]1 [Compound 140] |
| − (− = pIC50 <4.50) | ++ (++ = pIC50 5.00-<5.50) | – | – | O=C(NCc1nc(-c2ccccc2)no1)c1cc2cc(Cl)ccc2[nH]1 [Compound 129] |
| +++ (+++ = pIC50 ≥5.50) | +++ (+++ = pIC50 ≥5.50) | – | – | C[C@@H](NC(=O)c1cc2cccc(F)c2[nH]1)c1ccccc1 [Compound 61] |
| + (+ = pIC50 4.50-<5.00) | +++ (+++ = pIC50 ≥5.50) | – | – | O=C(NC(c1ccccc1)C1CC1)c1cc2cc(Cl)ccc2[nH]1 (stereo not shown) [Compound 99] |
| + (+ = pIC50 4.50-<5.00) | +++ (+++ = pIC50 ≥5.50) | – | – | O=C(NC(CO)c1ccccc1)c1cc2cc(Cl)ccc2[nH]1 (stereo not shown) [Compound 92] |
| − (− = pIC50 <4.50) | +++ (+++ = pIC50 ≥5.50) | – | – | CCc1ccc2[nH]c(C(=O)N[C@H](C)c3ccccc3)cc2c1 [Compound 241] |
| − (− = pIC50 <4.50) | +++ (+++ = pIC50 ≥5.50) | – | – | O=C(Nc1cccc2ccccc12)c1cc2ccc(F)cc2[nH]1 [Compound 65] |
| − (− = pIC50 <4.50) | +++ (+++ = pIC50 ≥5.50) | – | – | COc1ccc2cc(C(=O)Nc3cccc4ccccc34)[nH]c2c1 [Compound 3] |
| ++ (++ = pIC50 5.00-<5.50) | ++ (++ = pIC50 5.00-<5.50) | – | – | O=C(Nc1cccc2ncccc12)c1cc2ccc(F)cc2[nH]1 [Compound 64] |
| + (+ = pIC50 4.50-<5.00) | ++ (++ = pIC50 5.00-<5.50) | – | – | CC(NC(=O)c1cc2cc(F)ccc2[nH]1)c1ccccc1 (stereo not shown) [Compound 4] |
| + (+ = pIC50 4.50-<5.00) | +++ (+++ = pIC50 ≥5.50) | – | – | CC(NC(=O)c1cc2ccccc2[nH]1)c1ccc(Cl)cc1 (stereo not shown) [Compound 16] |

Further lines, the compound ahead of its results:

| SMILES | TDO cellular assay (A172) pIC50 (TDO (A172 cells)) | IDO cellular assay (SKOV3) pIC50 (IDO (SKOV-3 cells)) | IC50 (TDO (A172 cells); read-out: TDO cellular assay (A172) pIC50 (converted)) | IC50 (IDO (SKOV-3 cells); read-out: IDO cellular assay (SKOV3) pIC50 (converted)) |
| --- | --- | --- | --- | --- |
| COCCc1noc(C(C)NC(=O)c2cc3cc(Cl)ccc3[nH]2)n1 (stereo not shown) [Compound 130] | − (− = pIC50 <4.50) | ++ (++ = pIC50 5.00-<5.50) | – | – |
| CC(C)C(C)NC(=O)c1cc2cc(Cl)ccc2[nH]1 (stereo not shown) [Compound 71] | + (+ = pIC50 4.50-<5.00) | +++ (+++ = pIC50 ≥5.50) | – | – |
| O=C(NC1(c2cocn2)CC1)c1cc2cc(Cl)ccc2[nH]1 [Compound 274] | − (− = pIC50 <4.50) | +++ (+++ = pIC50 ≥5.50) | – | – |
| Cn1cc(C2(NC(=O)c3cc4cc(OC(F)(F)F)ccc4[nH]3)CCC2)cn1 [Compound 269] | − (− = pIC50 <4.50) | +++ (+++ = pIC50 ≥5.50) | – | – |
| Cc1nc(C(C)NC(=O)c2cc3cc(Cl)ccc3[nH]2)co1 (stereo not shown) [Compound 200] | − (− = pIC50 <4.50) | +++ (+++ = pIC50 ≥5.50) | – | – |
| Cc1noc(C(C)NC(=O)c2cc3cc(Cl)ccc3[nH]2)n1 (stereo not shown) [Compound 199] | − (− = pIC50 <4.50) | +++ (+++ = pIC50 ≥5.50) | – | – |
| CC(NC(=O)c1cc2cc(Cl)ccc2[nH]1)C1CN(S(C)(=O)=O)C1 (stereo not shown) [Compound 152] | − (− = pIC50 <4.50) | ++ (++ = pIC50 5.00-<5.50) | – | – |
| CC(NC(=O)c1cc2cc(Cl)ccc2[nH]1)c1ccc(OCCN(C)C)cc1 (stereo not shown) [Compound 102] | − (− = pIC50 <4.50) | + (+ = pIC50 4.50-<5.00) | – | – |
| CC(NC(=O)c1cc2cc(Cl)ccc2[nH]1)c1cnn(C)c1 (stereo not shown) [Compound 133] | − (− = pIC50 <4.50) | +++ (+++ = pIC50 ≥5.50) | – | – |
| O=C(NC1(c2ccccc2)CCCCC1)c1cc2cc(Cl)ccc2[nH]1 [Compound 240] | − (− = pIC50 <4.50) | +++ (+++ = pIC50 ≥5.50) | – | – |
| CCN(Cc1noc(CC(C)C)n1)C(=O)c1cc2cc(Cl)ccc2[nH]1 [Compound 117] | + (+ = pIC50 4.50-<5.00) | ++ (++ = pIC50 5.00-<5.50) | – | – |
| COc1ccc(-c2noc(C(C)NC(=O)c3cc4cc(Cl)ccc4[nH]3)n2)cc1OC (stereo not shown) [Compound 131] | − (− = pIC50 <4.50) | +++ (+++ = pIC50 ≥5.50) | – | – |
| CC(C)NC(=O)c1cc2cc(Cl)ccc2[nH]1 [Compound 67] | ++ (++ = pIC50 5.00-<5.50) | + (+ = pIC50 4.50-<5.00) | – | – |
| Cn1cc(C2(NC(=O)c3cc4cc(Cl)ccc4[nH]3)CCOCC2)cn1 [Compound 266] | − (− = pIC50 <4.50) | +++ (+++ = pIC50 ≥5.50) | – | – |
| CC(C)Oc1ccc2[nH]c(C(=O)NC3(c4cnn(C)c4)CC3)cc2c1 [Compound 265] | − (− = pIC50 <4.50) | +++ (+++ = pIC50 ≥5.50) | – | – |
| Cc1nnc(C2(NC(=O)c3cc4cc(Cl)ccc4[nH]3)CC2)[nH]1 [Compound 233] | − (− = pIC50 <4.50) | + (+ = pIC50 4.50-<5.00) | – | – |
| CC(NC(=O)c1cc2cc(Cl)ccc2[nH]1)c1ccc(N(C)C)cc1 (stereo not shown) [Compound 87] | + (+ = pIC50 4.50-<5.00) | +++ (+++ = pIC50 ≥5.50) | – | – |
